Here are results for seven molecules from patent US9975876B2, “2-pyridyloxy-3-ester-4-ether orexin receptor antagonists” (MERCK SHARP & DOHME CORP., priority 2013, dated 2018).

One assay concerns the target human orexin-2 receptor (Homo sapiens (Human), UniProt O43614). In words: FLIPR Ca2+ flux assay, orexin-2 receptor antagonism. In kind it is cell-based. Particulars: CHO cells; agonist 70 pM Ala-6,12 human orexin-A; read-out: hOX2R FLIPR IC50. As to the method:
In a typical experiment the OX1 and OX2 receptor antagonistic activity of the compounds of the present invention was determined in accordance with the following experimental method. For intracellular calcium measurements, Chinese hamster ovary (CHO) cells expressing the rat orexin-1 receptor or the human orexin-2 receptor, are grown in Iscove's modified DMEM containing 2 mM L-glutamine, […], 1% hypoxanthine-thymidine supplement, 100 U/ml penicillin, 100 μg/ml streptomycin and 10% heat-inactivated fetal calf serum (FCS). The cells are seeded at 20,000 cells/well into Becton-Dickinson black 384-well clear bottom sterile plates coated with poly-D-lysine. All reagents were from GIBCO-Invitrogen Corp. The seeded plates are incubated overnight at 37° C. and 5% CO2. Ala-6,12 human orexin-A as the agonist is prepared as a 1 mM stock solution in 1% bovine serum albumin (BSA) and diluted in assay buffer (HBSS containing 20 mM HEPES, 0.1% BSA and 2.5 mM probenecid, pH7.4) for use in the assay at a final concentration of 70 pM. Test compounds are prepared as 10 mM stock solution in DMSO, then diluted in 384-well plates, first in DMSO, then assay buffer. On the day of the assay, cells are washed 3 times with 100 μl assay buffer and then incubated for 60 min (37° C., 5% CO2) in 60 μl assay buffer containing 1 μM Fluo-4AM ester, 0.02% pluronic acid, and 1% BSA. The dye loading solution is then aspirated and cells are washed 3 times with 100 μl assay buffer. 30 μl of that same buffer is left in each well. Within the Fluorescent Imaging Plate Reader (FLIPR, Molecular Devices), test compounds are added to the plate in a volume of 25 μl, incubated for 5 min and finally 25 μl of agonist is added. Fluorescence is measured for each well at 1 second intervals for 5 minutes and the height of each fluorescence peak is compared to the height of the fluorescence peak induced by 70 pM Ala-6,12 orexin-A with buffer in place of antagonist. […] The intrinsic orexin receptor antagonist activity of a compound which may be used in the present invention may be determined by these assays.

In another assay the target is hOX1R (Homo sapiens, UniProt O43613). In words: FLIPR Ca2+ flux assay, orexin-1 receptor antagonism. In kind it is cell-based. Particulars: CHO cells; agonist 70 pM Ala-6,12 human orexin-A.

human orexin-2 receptor, sequence (O43614 whole entry): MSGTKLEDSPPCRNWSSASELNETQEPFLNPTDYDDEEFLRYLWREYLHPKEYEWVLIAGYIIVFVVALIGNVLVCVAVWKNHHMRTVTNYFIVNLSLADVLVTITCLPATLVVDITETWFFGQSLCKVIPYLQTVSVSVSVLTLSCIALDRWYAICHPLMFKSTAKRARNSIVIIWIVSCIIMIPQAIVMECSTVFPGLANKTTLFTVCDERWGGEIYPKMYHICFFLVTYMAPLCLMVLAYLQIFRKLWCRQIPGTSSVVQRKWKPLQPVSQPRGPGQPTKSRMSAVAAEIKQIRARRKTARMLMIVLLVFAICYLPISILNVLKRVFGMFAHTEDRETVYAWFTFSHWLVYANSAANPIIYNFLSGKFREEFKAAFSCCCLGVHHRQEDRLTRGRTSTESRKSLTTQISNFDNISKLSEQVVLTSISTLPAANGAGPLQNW

`COC(=O)c1c(OC)ccnc1O[C@@H]1CC[C@@H](C)N(C(=O)c2ccc(OC)nc2-n2nccn2)C1` [Example 17, methyl 4-methoxy-2-{[(3R,6R)-1-{[6-methoxy-2-(2H-1,2,3-triazol-2-yl)pyridin-3-yl]carbonyl}-6-methylpiperidin-3-yl]oxy}pyridine-3-carboxylate]: the IC50 was 52 nM at human orexin-2 receptor and 10000 nM at hOX1R.

In the case of `COC(=O)c1c(OC)ccnc1O[C@@H]1CC[C@@H](C)N(C(=O)c2ccc(F)cc2-n2nccn2)C1` [Example 4, methyl 2-{[(3R,6R)-1-{[4-fluoro-2-(2H-1,2,3-triazol-2-yl)phenyl]carbonyl}-6-methylpiperidin-3-yl]oxy}-4-methoxypyridine-3-carboxylate], the figures for the IC50 at human orexin-2 receptor and at hOX1R were 764 nM and 3200 nM, respectively.

In the case of `COC(=O)c1c(OC)ccnc1O[C@@H]1CC[C@@H](C)N(C(=O)c2cccc(F)c2-c2ncccn2)C1` [Example 22, methyl 2-({(3R,6R)-1-[(3-fluoro-2-pyrimidin-2-ylphenyl)carbonyl]-6-methylpiperidin-3-yl}oxy)-4-methoxypyridine-3-carboxylate], the values for the IC50 at human orexin-2 receptor and at hOX1R were 117 nM and 3780 nM, respectively.

For the molecule `COC(=O)c1c(OC)ccnc1O[C@@H]1CC[C@@H](C)N(C(=O)c2cc(F)ccc2-c2nc(C)no2)C1` [Example 13, methyl 2-{[(3R,6R)-1-{[5-fluoro-2-(3-methyl-1,2,4-oxadiazol-5-yl)phenyl]carbonyl}-6-methylpiperidin-3-yl]oxy}-4-methoxypyridine-3-carboxylate], the IC50 at human orexin-2 receptor worked out at 34.6 nM; at hOX1R it was 1160 nM.

`COC(=O)c1c(OC)ccnc1O[C@@H]1CC[C@@H](C)N(C(=O)c2ccc(Cl)cc2-n2nccn2)C1` [Example 3]: the IC50 at human orexin-2 receptor turned out to be 33.6 nM; on hOX1R, 1420 nM.

`COC(=O)c1c(OC)ccnc1O[C@@H]1CC[C@@H](C)N(C(=O)c2cc(F)ccc2-c2noc(C)n2)C1` [Example 9]: the 50% inhibitory concentration (IC50) on human orexin-2 receptor worked out at 36.7 nM; at hOX1R, 1500 nM.

Consider `COC(=O)c1c(OC)cccc1O[C@@H]1CC[C@@H](C)N(C(=O)c2ccsc2-c2ncccn2)C1` [Example 34, methyl 2-methoxy-6-({(3R,6R)-6-methyl-1-[(2-pyrimidin-2-ylthiophen-3-yl)carbonyl]piperidin-3-yl}oxy)benzoate], for which the IC50 at human orexin-2 receptor is 42 nM; on hOX1R it was more than 10000 nM.
